# Measured values published in ChEMBL document CHEMBL1142310, “Design and synthesis of substituted 4-oxo-4,5,6,7-tetrahydropyrazolo[1,5-a]pyrazine-2-carboxamides, novel HIV-1 integrase inhibitors” (Bioorg Med Chem Lett, 2008).
# Experiments:
# [1] = system: Human immunodeficiency virus 1; assay: Antiviral activity against HIV1 infected MT4 cells in presence of 50% NHS; assay type: functional, organism-based; conditions: Human immunodeficiency virus 1, MT4
# [2] = Inhibition of HIV1 integrase strand transfer activity; parameters: species or system Human immunodeficiency virus 1
# [3] = system: Human immunodeficiency virus 1; assay: Antiviral activity against HIV1 infected MT4 cells in presence of 10% FBS; assay type: functional; conditions: Human immunodeficiency virus 1, MT4
SMILES,IC50 [1] [nM],IC50 [2] [nM],IC95 [3] [nM],IC95 [1] [nM]
CNC(=O)c1nn2c(c1O)C(=O)N(Cc1ccc(F)cc1)CC2,> 10000,40,5000,
CNC(=O)c1cc(F)ccc1CNC(=O)c1nn2c(c1O)C(=O)N(C)C[C@@H]2c1ccccc1,,74,63,63
CN1CC(c2csc(N)n2)n2nc(C(=O)NCc3ccc(F)cc3)c(O)c2C1=O (stereo not given),,≤ 10,500,1000
CN1CCCn2nc(C(=O)NCc3ccc(F)cc3)c(O)c2C1=O,,470,,
CN1CCn2cc(C(=O)NCc3ccc(F)cc3)c(O)c2C1=O,,400,,
CNC(=O)c1cccc(C2CN(C)C(=O)c3c(O)c(C(=O)NCc4ccc(F)cc4)nn32)c1 (stereo not given),,≤ 10,1000,1000
CC1Cn2nc(C(=O)NCc3ccc(F)cc3)c(O)c2C(=O)N1C (stereo not given),,40,,
CNC(=O)c1cc(F)ccc1CNC(=O)c1nn2c(c1O)C(=O)N(C)C[C@H]2c1ccccc1,,62,250,250
CC(C)C1CN(C)C(=O)c2c(O)c(C(=O)NCc3ccc(F)cc3)nn21 (stereo not given),,20,63,250
CN1CC(c2cccnc2)n2nc(C(=O)NCc3ccc(F)cc3)c(O)c2C1=O (stereo not given),,≤ 10,250,500

# Continued, in another order:
IC50 [1] [nM],IC50 [2] [nM],SMILES,IC95 [3] [nM],IC95 [1] [nM]
,13,CC1CN(C)C(=O)c2c(O)c(C(=O)NCc3ccc(F)cc3)nn21 (stereo not given),,
,110,CN1C(=O)c2c(O)c(C(=O)NCc3ccc(F)cc3)nn2CC1c1ccccc1 (stereo not given),,
,130,CNC(=O)c1nn2c(c1O)C(=O)N(Cc1ccc(F)cc1)CC2c1ccccc1 (stereo not given),10000,> 10000
,≤ 10,CN1CCn2nc(C(=O)NCc3ccc(F)cc3)c(O)c2C1=O,630,2500
,≤ 10,CN1CC(c2ccccc2)n2nc(C(=O)NCc3ccc(F)cc3)c(O)c2C1=O (stereo not given),50,310
